According to patent US5126365A, “Bicyclic derivatives” (Imperial Chemical Industries PLC, priority 1989, dated 1992):

What was measured:
[1] = tested on: 5-LO; test: Test b) in vitro heparinised human blood challenged with A23187, LTB4 radioimmunoassay (5-LO); assay type: cell-based; settings: A23187 challenge
Method: b) An in vitro assay system involving incubating a test compound with heparinised human blood, prior to challenge with the calcium ionophore A23187 and then indirectly measuring the inhibitory effects on 5-LO by assaying the amount of LTB4 using the specific radioimmunoassay described by Carey and Forder (F. Carey and R. A. Forder, Brit. J. Pharmacol. 1985, 84, 34P) which involves the use of a protein-LTB4 conjugate produced using the procedure of Young et alia (Prostaglandins, 1983, 26(4), 605-613). The effects of a test compound on the enzyme cyclooxygenase (which is involved in the alternative metabolic pathway for arachidonic acid and gives rise to prostaglandins, thromboxanes and related metabolites) may be measured at the same time using the specific radioimmunoassay for thromboxane B2 (TxB2) described by Carey and Forder (see above). This test provides an indication of the effects of a test compound against 5-LO and also cyclooxygenase in the presence of blood cells and proteins. It permits the selectivity of the inhibitory effect on 5-LO or cyclooxygenase to be assessed.

[2] = tested on: 5-LO; test: Test c) ex vivo assay: administration of test compound, blood collection, A23187 challenge, radioimmunoassay of LTB4; assay type: in vivo; settings: oral
Method: c) An ex vivo assay system, which is a variation of test b) above, involving administration of a test compound (usually orally as the suspension produced when a solution of the test compound in dimethylsulphoxide is added to carboxymethylcellulose), blood collection, heparinisation, challenge with A23187 and radioimmunoassay of LTB4 and TxB2. This test provides an indication of the bioavailability of a test compound as an inhibitor of 5-LO or cyclooxygenase.

[3] = tested on: 5-LO; test: Test g) liberation of LTB4 induced by zymosan within an air pouch in male rats; assay type: in vivo; settings: oral, rat zymosan air pouch, 3 hours
Method: g) An in vivo system involving measuring the effects of a test compound administered orally against the liberation of LTB4 induced by zymosan within an air pouch generated within the subcutaneous tissue of the back of male rats. The rats are anaesthetised and air pouches are formed by the injection of sterile air (20 ml). A further injection of air (10 ml) is similarly given after 3 days. At 6 days after the initial air injection the test compound is administered (usually orally as the suspension produced when a solution of the test compound in dimethylsulphoxide is added to hydroxypropylmethylcellulose), followed by the intrapouch injection of zymosan (1 ml of a 1% suspension in physiological saline). After 3 hours the rats are killed, the air pouches are lavaged with physiological saline, and the specific radioimmunoassay described above is used to assay LTB4 in the washings. This test provides an indication of inhibitory effects against 5-LO in an inflammatory milieu.

For `COC1(c2ccc3c(c2)OC(c2ccc4ccccc4c2)O3)CCOCC1` (stereo not drawn) [5-(4-methoxytetrahydropyran-4-yl)-2-(naphth-2-yl)benzo-1,3-dioxole], the IC50 [1] was 300 nM, the ED50 [2] was 5 mg/kg and the ED50 [3] was < 3 mg/kg.
